Ki data for 24 compounds are collected here from patent publication US8426422B2, “Apoptosis-inducing agents for the treatment of cancer and immune and autoimmune diseases” (Abbvie Inc., priority 2009, dated 2013).

SMILES strings stand for the structures.

Chain of GST-Bcl-2 (P10415 whole entry): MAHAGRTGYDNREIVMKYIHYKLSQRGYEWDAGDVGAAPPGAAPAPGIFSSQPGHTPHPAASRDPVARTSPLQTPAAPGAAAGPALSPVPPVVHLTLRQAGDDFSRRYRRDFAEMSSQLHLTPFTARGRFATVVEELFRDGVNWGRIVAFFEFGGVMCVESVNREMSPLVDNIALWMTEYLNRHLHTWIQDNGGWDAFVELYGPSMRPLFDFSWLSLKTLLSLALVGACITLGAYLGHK

The target in this test is GST-Bcl-2 (Homo sapiens, UniProt P10415). The test can be described thus: Time Resolved-Fluorescence Resonance Energy Transfer (TR-FRET) Bcl-2 binding assay. Conditions: GST-Bcl-2 1 nM, F-Bak peptide probe 100 nM, Tb-anti-GST 1 nM; 3 hours at room temperature; Ki by Wang's equation. On the procedure:
Determination of the utility of compounds having Formula (I) as binders to and inhibitors of anti-apoptotic Bcl-2 proteins was performed using the Time Resolved-Fluorescence Resonance Energy Transfer (TR-FRET) Assay. Tb-anti-GST antibody was purchased from Invitrogen (Catalog No. PV4216).
Representative compounds were serially diluted in dimethyl sulfoxide (DMSO) starting at 50 μM (2x starting concentration; 10% DMSO) and 10 μL were transferred into a 384-well plate. The samples are then mixed on a shaker for 1 minute and incubated for an additional 3 hours at room temperature. For each assay, the probe/antibody and protein/probe/antibody were included on each assay plate as negative and positive controls, respectively. Fluorescence was measured on the ENVISION plate reader (Perkin Elmer) using a 340/35 nm excitation filter and 520/525 (F-Bak peptide) and 495/510 nm (Tb-labeled […] antibody) emission filters. Inhibition constants (Ki) are shown in TABLE 2 below and were determined using Wang's equation (Wang Z.-X. An Exact Mathematical Expression For Describing Competitive Binding Of Two Different Ligands To A Protein Molecule. FEBS Lett. 1995, 360:111-4).
The inhibition constant (Ki) is the dissociation constant of an enzyme-inhibitor complex or a protein/small molecule complex, wherein the small molecule is inhibiting binding of one protein to another protein. So a large Ki value indicates a low binding affinity and a small Ki value indicates a high binding affinity.
The compounds are therefore expected to have utility in treatment of diseases during which anti-apoptotic Bcl-2 protein is expressed.
Take `CC1(C)CCC(CN2CCN(c3ccc(C(=O)NS(=O)(=O)c4cccc(Cl)c4)c(Oc4ccc5[nH]ccc5c4)c3)CC2)=C(c2ccc(Cl)cc2)C1` [Example 34, 4-(4-{[2-(4-chlorophenyl)-4,4-dimethylcyclohex-1-en-1-yl]methyl}piperazin-1-yl)-N-[(3-chlorophenyl)sulfonyl]-2-(1H-indol-5-yloxy)benzamide]: the Ki was 5.14 nM.
The compound `CN(C)CCOc1cccc(-c2ccc(Cl)cc2)c1CN1CCN(c2ccc(C(=O)NS(=O)(=O)c3ccccc3)c(Oc3cccc4[nH]ccc34)c2)CC1` [Example 29, 4-[4-({4′-chloro-3-[2-(dimethylamino)ethoxy]-1,1′-biphenyl-2-yl}methyl)piperazin-1-yl]-2-(1H-indol-4-yloxy)-N-(phenylsulfonyl)benzamide] had a Ki of 2.27 nM.
In turn, `CC1(C)CCC(CN2CCN(c3ccc(C(=O)NS(=O)(=O)c4ccc(Cl)c([N+](=O)[O-])c4)c(Oc4cccc5[nH]ncc45)c3)CC2)=C(c2ccc(Cl)cc2)C1` [Example 38, N-[(4-chloro-3-nitrophenyl)sulfonyl]-4-(4-{[2-(4-chlorophenyl)-4,4-dimethylcyclohex-1-en-1-yl]methyl}piperazin-1-yl)-2-(1H-indazol-4-yloxy)benzamide] returned an inhibition constant (Ki) of 0.174 nM.
Consider `O=C(NS(=O)(=O)c1ccc(Cl)c([N+](=O)[O-])c1)c1ccc(N2CCN(Cc3ccccc3-c3ccc(Cl)cc3)CC2)cc1Oc1ccccc1` [Example 27, 4-{4-[(4′-chloro-1,1′-biphenyl-2-yl)methyl]piperazin-1-yl}-N-[(4-chloro-3-nitrophenyl)sulfonyl]-2-phenoxybenzamide], for which the affinity corresponds to a Ki of 4.16 nM.
`O=C(NS(=O)(=O)c1ccc([N+](=O)[O-])cc1)c1ccc(N2CCN(Cc3ccccc3-c3ccc(Cl)cc3)CC2)cc1` [Example 16, 4-{4-[(4′-chloro-1,1′-biphenyl-2-yl)methyl]piperazin-1-yl}-N-[(4-nitrophenyl)sulfonyl]benzamide] had a Ki of 273 nM.
For the compound `O=C(NS(=O)(=O)c1ccc(Br)cc1)c1ccc(N2CCN(Cc3ccccc3-c3ccc(Cl)cc3)CC2)cc1` [Example 11, N-[(4-bromophenyl)sulfonyl]-4-{4-[(4′-chloro-1,1′-biphenyl-2-yl)methyl]piperazin-1-yl}benzamide], affinity was put at a Ki of 208 nM.
The figure for `CN(C)CCOc1cccc(-c2ccc(Cl)cc2)c1CN1CCN(c2ccc(C(=O)NS(=O)(=O)c3cccc([N+](=O)[O-])c3)c(Oc3cccc4[nH]ccc34)c2)CC1` [Example 28, 4-[4-({4′-chloro-3-[2-(dimethylamino)ethoxy]-1,1′-biphenyl-2-yl}methyl)piperazin-1-yl]-2-(1H-indol-4-yloxy)-N-[(3-nitrophenyl)sulfonyl]benzamide] is 0.125 nM; for `CC1(C)CCC(CN2CCN(c3ccc(C(=O)NS(=O)(=O)c4cccc(F)c4)c(Oc4ccc5[nH]ccc5c4)c3)CC2)=C(c2ccc(Cl)cc2)C1` [Example 35, 4-(4-{[2-(4-chlorophenyl)-4,4-dimethylcyclohex-1-en-1-yl]methyl}piperazin-1-yl)-N-[(3-fluorophenyl)sulfonyl]-2-(1H-indol-5-yloxy)benzamide] it is 8.84 nM.
Consider `O=C(NS(=O)(=O)c1ccc([N+](=O)[O-])cc1)c1ccc(N2CCN(Cc3ccccc3-c3ccc(Cl)cc3)CC2)cc1Oc1ccccc1` [Example 22, 4-{4-[(4′-chloro-1,1′-biphenyl-2-yl)methyl]piperazin-1-yl}-N-[(4-nitrophenyl)sulfonyl]-2-phenoxybenzamide], for which the affinity corresponds to a Ki of 17.3 nM.
In the case of `CC1(C)CCC(CN2CCN(c3ccc(C(=O)NS(=O)(=O)c4cccc(C(F)(F)F)c4)c(Oc4ccc5[nH]ccc5c4)c3)CC2)=C(c2ccc(Cl)cc2)C1` [Example 33, 4-(4-{[2-(4-chlorophenyl)-4,4-dimethylcyclohex-1-en-1-yl]methyl}piperazin-1-yl)-2-(1H-indol-5-yloxy)-N-{[3-(trifluoromethyl)phenyl]sulfonyl}benzamide], the Ki worked out at 4.09 nM.
For the compound `O=C(NS(=O)(=O)c1cccc([N+](=O)[O-])c1)c1ccc(N2CCN(Cc3ccccc3-c3ccc(Cl)cc3)CC2)cc1S(=O)(=O)c1ccccc1` [Example 26, 4-{4-[(4′-chloro-1,1′-biphenyl-2-yl)methyl]piperazin-1-yl}-N-[(3-nitrophenyl)sulfonyl]-2-(phenylsulfonyl)benzamide], the Ki stood at 627 nM.
The figure for `O=C(NS(=O)(=O)c1cccc([N+](=O)[O-])c1)c1ccc(N2CCN(Cc3ccccc3-c3ccc(Cl)cc3)CC2)cc1Sc1ccccc1` [Example 13, 4-{4-[(4′-chloro-1,1′-biphenyl-2-yl)methyl]piperazin-1-yl}-N-[(3-nitrophenyl)sulfonyl]-2-(phenylthio)benzamide] is 72.9 nM; for `O=C(NS(=O)(=O)c1ccc(F)cc1)c1ccc(N2CCN(Cc3ccccc3-c3ccc(Cl)cc3)CC2)cc1` [Example 19, 4-{4-[(4′-chloro-1,1′-biphenyl-2-yl)methyl]piperazin-1-yl}-N-[(4-fluorophenyl)sulfonyl]benzamide] it is 403 nM.
With `CC1(C)CCC(CN2CCN(c3ccc(C(=O)NS(=O)(=O)c4ccc5ccccc5c4)c(Oc4ccc5[nH]ccc5c4)c3)CC2)=C(c2ccc(Cl)cc2)C1` [Example 36, 4-(4-{[2-(4-chlorophenyl)-4,4-dimethylcyclohex-1-en-1-yl]methyl}piperazin-1-yl)-2-(1H-indol-5-yloxy)-N-(2-naphthylsulfonyl)benzamide], the Ki was determined as 31.7 nM.
`O=C(NS(=O)(=O)c1cccc([N+](=O)[O-])c1)c1ccc(N2CCN(Cc3ccccc3-c3ccc(Cl)cc3)CC2)cc1OCCc1ccccc1` [Example 8, 4-{4-[(4′-chloro-1,1′-biphenyl-2-yl)methyl]piperazin-1-yl}-N-[(3-nitrophenyl)sulfonyl]-2-(2-phenylethoxy)benzamide] came in with a Ki of 975 nM. Against the preceding compound, the Ki is about 31-fold higher.
In the case of `CC1(C)CCC(CN2CCN(c3ccc(C(=O)NS(=O)(=O)c4cccc([N+](=O)[O-])c4)c(Oc4ccc5[nH]ccc5c4)c3)CC2)=C(c2ccc(Cl)cc2)C1` [Example 30, 4-(4-{[2-(4-chlorophenyl)-4,4-dimethylcyclohex-1-en-1-yl]methyl}piperazin-1-yl)-2-(1H-indol-5-yloxy)-N-[(3-nitrophenyl)sulfonyl]benzamide], the Ki stood at 0.209 nM. This Ki is about 4700-fold lower than that of the compound before.
In turn, `O=C(NS(=O)(=O)c1ccc(F)cc1)c1ccc(N2CCN(Cc3ccccc3-c3ccc(Cl)cc3)CC2)cc1Oc1ccccc1` [Example 24, 4-{4-[(4′-chloro-1,1′-biphenyl-2-yl)methyl]piperazin-1-yl}-N-[(4-fluorophenyl)sulfonyl]-2-phenoxybenzamide] showed an inhibition constant (Ki) of 10.3 nM.
The figure for `O=C(NS(=O)(=O)c1cccc([N+](=O)[O-])c1)c1ccc(N2CCN(Cc3ccccc3-c3ccc(Cl)cc3)CC2)cc1` [Example 5, 4-{4-[(4′-chloro-1,1′-biphenyl-2-yl)methyl]piperazin-1-yl}-N-[(3-nitrophenyl)sulfonyl]benzamide] is 185 nM; for `O=C(NS(=O)(=O)c1cccc([N+](=O)[O-])c1)c1ccc(N2CCN(Cc3ccccc3-c3ccc(Cl)cc3)CC2)cc1CCc1ccccc1` [Example 18, 4-{4-[(4′-chloro-1,1′-biphenyl-2-yl)methyl]piperazin-1-yl}-N-[(3-nitrophenyl)sulfonyl]-2-(2-phenylethyl)benzamide] it is 746 nM.
On to `CC1(C)CCC(CN2CCN(c3ccc(C(=O)NS(=O)(=O)c4ccccc4)c(Oc4ccc5[nH]ccc5c4)c3)CC2)=C(c2ccc(Cl)cc2)C1` [Example 31, 4-(4-{[2-(4-chlorophenyl)-4,4-dimethylcyclohex-1-en-1-yl]methyl}piperazin-1-yl)-2-(1H-indol-5-yloxy)-N-(phenylsulfonyl)benzamide], for which the affinity corresponds to a Ki of 21.6 nM.
The figure for `O=C(NS(=O)(=O)c1cccc([N+](=O)[O-])c1)c1ccc(N2CCN(Cc3ccccc3-c3ccc(Cl)cc3)CC2)cc1Oc1ccccc1` [Example 9, 4-{4-[(4′-chloro-1,1′-biphenyl-2-yl)methyl]piperazin-1-yl}-N-[(3-nitrophenyl)sulfonyl]-2-phenoxybenzamide] is 26.5 nM; for `O=C(NS(=O)(=O)c1cccc([N+](=O)[O-])c1)c1ccc(N2CCN(Cc3ccccc3-c3ccc(Cl)cc3)CC2)cc1NCc1ccccc1` [Example 14, 2-(benzylamino)-4-{4-[(4′-chloro-1,1′-biphenyl-2-yl)methyl]piperazin-1-yl}-N-[(3-nitrophenyl)sulfonyl]benzamide] it is 749 nM; for `O=C(NS(=O)(=O)c1cccc([N+](=O)[O-])c1)c1ccc(N2CCN(Cc3ccccc3-c3ccc(Cl)cc3)CC2)cc1[S+]([O-])c1ccccc1` (stereo not drawn) [Example 21, 4-{4-[(4′-chloro-1,1′-biphenyl-2-yl)methyl]piperazin-1-yl}-N-[(3-nitrophenyl)sulfonyl]-2-(phenylsulfinyl)benzamide] it is 87.3 nM.
The figure for `O=C(NS(=O)(=O)c1cccc(F)c1)c1ccc(N2CCN(Cc3ccccc3-c3ccc(Cl)cc3)CC2)cc1` [Example 20, 4-{4-[(4′-chloro-1,1′-biphenyl-2-yl)methyl]piperazin-1-yl}-N-[(3-fluorophenyl)sulfonyl]benzamide] is 280 nM.
